# Reference: patent US20260015352A1, “METHYLTRANSFERASE INHIBITOR AND USE THEREOF” (CYTOSINLAB THERAPEUTICS CO., LTD., priority 2022, published 2026)
# Tested on: G401 cells
# Test: G401 ELISA test
# Format: cell-based
# Conditions: Homo sapiens, G-401; G401 cells treated with compounds for 72 hours; ELISA detecting K27 and H3; read-out: G401_ELISA IC50
# Procedure: • Plate Reader: Envision (Perkinelmner); plate shaker: IKA MTS 2/4; plate Washer: BioTek microplate wisher 405 select; Cell counter: Counterstar (Ruiyu-biotech); Cell culture incubator: MCO-15AC (ThermoFisher); Pipette: BioHit Multichannel. Pipette: 0.2-10 μL, 10-300 μL, 50-1200 μL; Centrifuge: Thermo Centrifuge ST 40R; Pure water system: Millipore Milli-Q Reference system; Refrigerator: Haier −80 degree, −20 degree, and 4-degree refrigerators; cell cryopreservation box: Mr. Frosty™ Gradient Cooling Box Cat #5100-0001
# • McCoys 5A (Modified) culture medium (ATCC); FBS (Gibco); 0.25% Trypsin/EDTA (Gibco); PBS (Hyclone); Penicillin/Streptomycin(100×) (Gibco); DMSO (Sigma); 384 cell culture plate (Corning); 384 detection plate (Greiner); 96 well plate (compound dilution) (Haimen, Qunchao); T75 Cell Culture Bottle (Corning)
# G401 cells were seeded in a 384-well cell culture plate and incubated overnight at 37° C. in a 5% CO2 cell culture incubator, after which the cells were treated with compounds of different concentrations for 72 hours. The 384-well cell culture plate was taken out and upside down in a centrifuge to centrifugeat 300 rpm for 1 minute. After centrifugation, the 384-well cell culture plate was washed twice with PBS, added with lysis solution and lysed for 60 minutes. Then neutralization buffer was added for mixing and incubation was continued for 30 minutes. 20 ul (for detecting K27) and 10 ul (for detecting H3) of cell lysate were extracted from the 384-well cell culture plate and transferred to a 384 ELISA detection plate and incubate overnight at 4° C. The next day, the 384 ELISA plate was taken out and washed 5 times with TBST in a microplate washer. Then, the plate was added with a blocking solution and sealed at room temperature for 1 hour. The blocking solution was discarded and the primary antibody was added and then the plate was incubated at room temperature for 1 hour. After incubation, the plate was washed with TBST 5 times in a microplate washer, then added with secondary antibody and incubated at room temperature for 1 hour. After incubation, the plate was washed with TBST 5 times in a microplate washer, and finally added with color developer for color development. The plate was read with Envision plate reader. The obtained data was converted into inhibition rate using the following calculation method: % Inhibition rate=100−100*(compound absorbance−positive control absorbance)/(negative control absorbance−positive control absorbance), and then the inhibition rate data was subjected to curve fitting using the “logarithmic (inhibitor) and reaction-variable slope (four parameters)” model in GraphPad Prism 5 software.
# The inhibition rate of the compound was calculated as follows: […]
# The compounds of the present invention were tested according to the above experimental method, and some results were shown in Table 3. The test results were classified by A, B, and C, wherein A represents IC50≤0.1 uM; B represents 0.1 uM<IC50≤1 uM; C represents IC50>1 uM
row,Compound,IC50
1,Cc1ccc2ccc(NC34CCC([C@H](C)Nc5ncc(CNC6CS(=O)(=O)C6)cn5)(CC3)CC4)nc2c1Cl [PA179],≤ 100 nM
2,COc1nccc2ccc(NC34CCC(C(C)Nc5ncc(CC(=O)NC6COC6)cn5)(CC3)CC4)nc12 (centres unmarked) [PA180],≤ 100 nM
3,Cc1ccc2ccc(NC34CCC(C(C)Nc5ncc(CC(=O)NC6COC6)cn5)(CC3)CC4)nc2c1Cl (centres unmarked) [PA183],≤ 100 nM
4,CC(c1cnc(N[C@@H](C)C23CCC(Nc4ccc5ccnc(Cl)c5n4)(CC2)CC3)nc1)N1CCS(=O)(=O)CC1 (some centres unmarked) [PA184],≤ 100 nM
5,C[C@H](Nc1ncc(CC2CCS(=O)(=O)CC2)cn1)C12CCC(Nc3ccc4ccnc(Cl)c4n3)(CC1)CC2 [PA187],≤ 100 nM
6,C[C@H](Nc1ncc(CNCc2cnoc2)cn1)C12CCC(Nc3ccc4ccnc(Cl)c4n3)(CC1)CC2 [PA188],≤ 100 nM
7,CC(C(=O)NCCC#N)c1cnc(N[C@@H](C)C23CCC(Nc4ccc5ccnc(Cl)c5n4)(CC2)CC3)nc1 (some centres unmarked) [PA191],≤ 100 nM
8,COc1nccc2ccc(Nc3ccc([C@H](C)Nc4ncc(CC(=O)N(CCC#N)CCC#N)cn4)cc3F)nc12 [PA192],≤ 100 nM
9,COc1cccc2ccc(Nc3ccc(CNc4ncc(CC(=O)NC5COC5)cn4)cc3F)nc12 [PA197],≤ 100 nM
10,COc1nccc2ccc(Nc3ccc(CNc4ncc(CNCc5cnoc5)cn4)cc3F)nc12 [PA198],≤ 100 nM
11,CC(C(=O)N(CCC#N)CCC#N)c1cnc(N[C@@H](C)C23CCC(Nc4ccc5ccnc(Cl)c5n4)(CC2)CC3)nc1 (some centres unmarked) [PA202],≤ 100 nM
12,COc1nccc2ccc(Nc3ccc(CNc4ncc(CNCc5cnco5)cn4)cc3F)nc12 [PA203],≤ 100 nM
13,COc1nccc2ccc(Nc3ccc(CNc4ncc(NCc5cnoc5)cn4)cc3F)nc12 [PA208],100 to 1000 nM
14,C[C@@H](Nc1ncc(CC(=O)NC2COC2)cn1)C12CCC(Nc3ccc4ccnc(Cl)c4n3)(CC1)CC2 [PA209],100 to 1000 nM
15,COc1nccc2ccc(Nc3ccc([C@H](C)Nc4ncc(/C=C/C5CCS(=O)(=O)CC5)cn4)cc3F)nc12 [PA210],100 to 1000 nM
16,COc1nccc2ccc(Nc3ccc(CNc4ncc(CCNC5COC5)cn4)cc3)nc12 [PA211],100 to 1000 nM

row,Compound,IC50
1,COc1nccc2ccc(Nc3ccc([C@H](C)Nc4ncc(C=CC5CCS(=O)(=O)CC5)cn4)cc3F)nc12 [PA213],100 to 1000 nM
2,COc1nccc2ccc(Nc3ccc(CNc4ncc(CC(=O)N5CCC56COC6)cn4)cc3F)nc12 [PA215],100 to 1000 nM
3,COc1nccc2ccc(Nc3ccc([C@H](CO)Nc4ncc(CC(=O)NC5COC5)cn4)cc3F)nc12 [PA218],100 to 1000 nM
4,COc1nccc2ccc(Nc3ccc(CNc4ncc(CNCC5CCOC5)cn4)cc3F)nc12 (centres unmarked) [PA220],100 to 1000 nM
5,COc1nccc2ccc(Nc3ccc(CNc4ncc(CNCc5ccon5)cn4)cc3F)nc12 [PA221],100 to 1000 nM
6,COc1nccc2ccc(Nc3ccc(CNc4ncc(CC(=O)N5CCC(C#N)CC5)cn4)cc3F)nc12 [PA224],100 to 1000 nM
7,COc1nccc2ccc(Nc3ccc(CNc4ncc(CC(=O)N5CCOCC5)cn4)cc3F)nc12 [PA226],100 to 1000 nM
8,COc1nccc2ccc(Nc3ccc(CNc4ncc(CN5CCC(O)CC5)cn4)cc3F)nc12 [PA227],100 to 1000 nM
9,O=C(Cc1ccc(NCC23CCC(Nc4ccc5ccnc(Cl)c5n4)(CC2)CC3)nc1)NC1COC1 [PA228],100 to 1000 nM
10,COc1nccc2ccc(NC34CCC(CNc5ncc(CC(=O)NC6COC6)cn5)(CC3)OC4)nc12 [PA229],100 to 1000 nM
11,COc1nccc2ccc(Nc3ccc(CNc4ncc(CC(=O)N5CCC(O)CC5)cn4)cc3F)nc12 [PA230],100 to 1000 nM
12,COc1nccc2ccc(Nc3ccc(CNc4ncc(CC(N)=O)cn4)cc3F)nc12 [PA231],100 to 1000 nM
13,COc1nccc2ccc(Nc3ccc(CNc4ncc(CC(=O)N5CCC(O)C5)cn4)cc3F)nc12 (centres unmarked) [PA232],100 to 1000 nM
14,COc1nccc2ccc(Nc3ccc([C@H](C)Nc4ccc(CC(=O)NC5COC5)cn4)cc3F)nc12 [PA233],100 to 1000 nM
15,COc1nccc2ccc(Nc3ccc(CNc4ncc(CNCc5cn[nH]c5)cn4)cc3F)nc12 [PA234],100 to 1000 nM

# Further lines, results first:
row,IC50,Compound
1,≤ 100 nM,COc1nccc2ccc(Nc3ccc([C@H](C)Nc4ncc(CNCCC#N)cn4)cc3F)nc12 [PA181]
2,≤ 100 nM,COc1nccc2ccc(Nc3ccc([C@H](C)Nc4ncc(CNC5CCS(=O)(=O)C5)cn4)cc3F)nc12 (some centres unmarked) [PA182]
3,≤ 100 nM,COc1nccc2ccc(Nc3ccc([C@H](C)Nc4ncc(CC(=O)N(CCC#N)C5COC5)cn4)cc3F)nc12 [PA185]
4,≤ 100 nM,COc1nccc2ccc(Nc3ccc([C@H](C)Nc4ncc([C@H](C)C(=O)NC5COC5)cn4)cc3F)nc12 [PA186]
5,≤ 100 nM,COc1nccc2ccc(Nc3ccc([C@H](C)Nc4ncc(CN5CCN(S(C)(=O)=O)CC5)cn4)cc3F)nc12 [PA189]
6,≤ 100 nM,COc1nccc2ccc(Nc3ccc([C@H](C)Nc4ncc(C(C)C(=O)NC5COC5)cn4)cc3F)nc12 (some centres unmarked) [PA190]
7,≤ 100 nM,COc1nccc2ccc(Nc3ccc([C@H](C)Nc4ncc(CC(=O)NC5COC5)cn4)cc3F)nc12 [PA193]
8,≤ 100 nM,COc1nccc2ccc(Nc3ccc([C@H](C)Nc4ncc(CN5CCS(=O)(=O)CC5)cn4)cc3F)nc12 [PA194]
9,≤ 100 nM,COc1nccc2ccc(Nc3ccc([C@H](C)Nc4ncc(CC5CCS(=O)(=O)CC5)cn4)cc3F)nc12 [PA195]
10,≤ 100 nM,COc1nccc2ccc(Nc3ccc([C@H](C)Nc4ncc(CNC5CC(C#N)C5)cn4)cc3F)nc12 (some centres unmarked) [PA196]
11,≤ 100 nM,COc1nccc2ccc(Nc3ccc([C@H](C)Nc4ncc(N5CC(CC#N)C5)cn4)cc3F)nc12 [PA199]
12,≤ 100 nM,COc1nccc2ccc(Nc3ccc([C@H](C)Nc4ncc(CC(=O)NCCC#N)cn4)cc3F)nc12 [PA200]
13,≤ 100 nM,COc1nccc2ccc(Nc3ccc([C@H](C)Nc4ncc(CNC5CC(F)(F)C5)cn4)cc3F)nc12 [PA201]
14,≤ 100 nM,COc1nccc2ccc(Nc3ccc(C(C)Nc4ncc(CC(=O)NC5COC5)cn4)cc3F)nc12 (centres unmarked) [PA204]
15,≤ 100 nM,COc1nccc2ccc(Nc3ccc([C@H](C)Nc4ncc(C(N)C(=O)NC5COC5)cn4)cc3F)nc12 (some centres unmarked) [PA205]
16,≤ 100 nM,COc1nccc2ccc(Nc3ccc([C@H](C)Nc4ncc(N5CC(C#N)C5)cn4)cc3F)nc12 [PA206]
17,100 to 1000 nM,COc1nccc2ccc(Nc3ccc([C@H](C)Nc4ncc(CC(=O)NC5CS(=O)(=O)C5)cn4)cc3F)nc12 [PA212]
18,100 to 1000 nM,COc1nccc2ccc(Nc3ccc([C@H](C)Nc4ncc(N5CCC(C#N)CC5)cn4)cc3F)nc12 [PA214]
19,100 to 1000 nM,COc1nccc2ccc(Nc3ccc([C@H](C)Nc4ncc(CC(=O)NC5CC(F)(F)C5)cn4)cc3F)nc12 [PA216]
20,100 to 1000 nM,COc1nccc2ccc(Nc3ccc([C@H](C)Nc4ncc(N(C)C(=O)NC5COC5)cn4)cc3F)nc12 [PA217]
21,100 to 1000 nM,COc1nccc2ccc(Nc3ccc([C@H](C)Nc4ncc(CCc5cc(C#N)n[nH]5)cn4)cc3F)nc12 [PA219]
22,100 to 1000 nM,COc1nccc2ccc(Nc3ccc([C@H](C)Nc4ncc(CC(=O)NC5CCCC5OC)cn4)cc3F)nc12 (some centres unmarked) [PA222]
23,100 to 1000 nM,COc1nccc2ccc(Nc3ccc([C@H](C)Nc4ncc(CCNC5CC(F)(F)C5)cn4)cc3F)nc12 [PA223]
24,100 to 1000 nM,COc1nccc2ccc(Nc3ccc([C@H](C)Nc4ncc([C@@H](C)C(=O)NC5COC5)cn4)cc3F)nc12 [PA225]
25,100 to 1000 nM,COc1nccc2ccc(Nc3ccc([C@H](C)Nc4ncc(CCN(C)C5CC(F)(F)C5)cn4)cc3F)nc12 [PA235]
